Experimental data from ChEMBL document CHEMBL3861941, “Discovery of 4,6-disubstituted pyrimidines as potent inhibitors of the heat shock factor 1 (HSF1) stress pathway and CDK9” (Medchemcomm, 2016).
pIC50: −log10 of the molar value.

Key:
[1] = molecular target: Cyclin-dependent kinase 2/cyclin E1 (Homo sapiens, UniProt P24941); experiment: Inhibition of recombinant full-length human C-terminal His6-tagged CDK2/recombinant full-length human N-terminal GST-tagged cyclin E using fluorescein-QSPKKG-CONH2 as substrate after 60 mins by off-chip mobility shift assay; type: protein-complex assay
[2] = molecular target: CDK9/cyclin T1 (Homo sapiens, UniProt P50750)
[3] = Cytotoxicity against human U2OS cells assessed as growth inhibition after 96 hrs by SRB assay; type: functional, cell-based

CDK9/cyclin T1, sequence (O60563 whole entry): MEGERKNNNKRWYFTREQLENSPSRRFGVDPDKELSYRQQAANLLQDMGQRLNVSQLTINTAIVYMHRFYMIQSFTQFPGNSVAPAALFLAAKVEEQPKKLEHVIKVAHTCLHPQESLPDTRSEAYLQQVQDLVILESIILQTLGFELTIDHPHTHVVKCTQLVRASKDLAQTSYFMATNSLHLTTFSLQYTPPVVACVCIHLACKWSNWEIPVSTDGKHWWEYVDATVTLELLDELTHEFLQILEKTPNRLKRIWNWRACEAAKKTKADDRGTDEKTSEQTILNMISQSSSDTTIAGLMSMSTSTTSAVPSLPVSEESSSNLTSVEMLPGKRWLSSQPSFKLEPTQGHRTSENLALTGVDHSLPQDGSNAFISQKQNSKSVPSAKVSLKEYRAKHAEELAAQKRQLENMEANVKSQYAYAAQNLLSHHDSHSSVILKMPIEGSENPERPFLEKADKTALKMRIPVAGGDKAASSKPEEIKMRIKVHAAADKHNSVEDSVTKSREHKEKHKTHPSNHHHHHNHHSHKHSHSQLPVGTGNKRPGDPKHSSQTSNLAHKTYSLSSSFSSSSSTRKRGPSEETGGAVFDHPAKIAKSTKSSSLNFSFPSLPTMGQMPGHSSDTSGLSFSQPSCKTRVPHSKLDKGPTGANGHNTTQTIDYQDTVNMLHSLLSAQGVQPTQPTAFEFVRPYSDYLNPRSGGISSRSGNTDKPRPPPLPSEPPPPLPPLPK
CDK9/cyclin T1, sequence (P50750 whole entry): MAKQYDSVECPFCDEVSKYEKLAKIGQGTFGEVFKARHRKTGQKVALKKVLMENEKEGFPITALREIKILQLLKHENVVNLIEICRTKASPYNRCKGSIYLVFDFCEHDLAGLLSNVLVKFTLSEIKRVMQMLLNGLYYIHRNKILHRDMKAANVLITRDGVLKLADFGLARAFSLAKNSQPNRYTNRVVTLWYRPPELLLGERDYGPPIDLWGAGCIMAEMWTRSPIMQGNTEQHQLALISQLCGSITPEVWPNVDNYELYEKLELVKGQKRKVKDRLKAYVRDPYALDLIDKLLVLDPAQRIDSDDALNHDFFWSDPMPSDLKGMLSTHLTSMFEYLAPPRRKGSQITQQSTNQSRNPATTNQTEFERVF

Cc1c(Nc2ccc(OCCN(C)C)cn2)ncnc1-n1cnc2ccccc21
pIC50 [1]: 4.18

c1cnc2ncn(-c3cc(Nc4ccc(OCCN5CCCCC5)cn4)ncn3)c2c1
pIC50 [2]: 8.52
pIC50 [3]: 8.30
